Reference: the CheMixHub ionic liquid set

Experiment: xn = mol fraction of the nth substance listed
Conditions: 101.3 kPa

CC[n+]1ccn(C)c1.N#C[S-] + CC1COC(=O)O1
Conditions | electrical conductivity [S/m] | viscosity [mPa·s]
293.15 K, x1 = 0.2045 | 2.09 | 5.834
293.15 K, x1 = 0.2984 | 2.24 | 7.631
298.15 K, x1 = 0.0989 | 1.68 | 3.689
298.15 K, x1 = 0.4 | 2.36 | 8.466
298.15 K, x1 = 0.599 | 2.15 | 12.93
298.15 K, x1 = 0.7045 | 2.06 | 15.47
313.15 K, x1 = 0.7045 | 2.76 | 10.1
318.15 K, x1 = 0.2045 | 3.18 | 2.991
318.15 K, x1 = 0.2984 | 3.43 | 3.817
318.15 K, x1 = 0.599 | 3.12 | 7.316
318.15 K, x1 = 0.7045 | 3.02 | 8.83
318.15 K, x1 = 0.8942 | 2.77 | 11.64
323.15 K, x1 = 0.2045 | 3.45 | 2.665
323.15 K, x1 = 0.499 | 3.49 | 5.278
323.15 K, x1 = 0.599 | 3.4 | 6.4
328.15 K, x1 = 0.499 | 3.77 | 4.608
328.15 K, x1 = 0.599 | 3.68 | 5.614
328.15 K, x1 = 0.796 | 3.45 | 7.7
328.15 K, x1 = 0.8942 | 3.31 | 8.9
333.15 K, x1 = 0.0989 | 3.33 | 1.702
338.15 K, x1 = 0.0989 | 3.601 | –
338.18 K, x1 = 0.2984 | – | 2.283
343.15 K, x1 = 0.4 | 4.79 | 2.568
343.15 K, x1 = 0.499 | 4.66 | 3.183
343.15 K, x1 = 1 | 4.01 | 7.236
